pIC50: −log10 of the molar value.
target: T1, PIP4K2C (Homo sapiens, UniProt Q8TBX8); assay: Enzyme Binding Assay (KINOMEscan): active site-directed competition binding to an immobilized ligand; design: purchased Eurofins DiscoverX, San Diego, CA 87-0007-1094; conditions: 11-point dose response, duplicate, top concentration 5 micromolar; read-out: Pip4k2c Kd: IC50
T1 sequence (Q8TBX8 1-421): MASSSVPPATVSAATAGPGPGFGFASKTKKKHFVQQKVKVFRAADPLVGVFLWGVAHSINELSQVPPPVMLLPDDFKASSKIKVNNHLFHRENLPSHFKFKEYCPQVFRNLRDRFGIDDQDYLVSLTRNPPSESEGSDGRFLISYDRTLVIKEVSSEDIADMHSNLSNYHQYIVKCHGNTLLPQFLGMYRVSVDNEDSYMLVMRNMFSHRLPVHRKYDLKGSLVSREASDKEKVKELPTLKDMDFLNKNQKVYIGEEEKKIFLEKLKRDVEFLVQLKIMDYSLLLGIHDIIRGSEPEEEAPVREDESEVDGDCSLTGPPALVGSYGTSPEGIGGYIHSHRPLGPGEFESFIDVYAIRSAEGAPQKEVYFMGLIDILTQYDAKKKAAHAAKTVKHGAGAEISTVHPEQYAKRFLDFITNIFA
Summary of the method: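 IC50 values come from Hill-equation fits (Levenberg-Marquardt) to 11-point duplicate titrations starting at 5 micromolar. Read-out is competition of compound with an immobilized ligand for the kinase active site.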

Structure (SMILES) | pIC50
CC(=O)N1CCC(Nc2ncc(Cl)c(-c3cnn(-c4ccc(=O)[nH]c4)c3)n2)CC1 [Compound 110, 5-(4-(2-((1-acetylpiperidin-4-yl)amino)-5-chloropyrimidin-4-yl)-1H-pyrazol-1-yl)pyridin-2(1H)-one] | > 6.30
CC(=O)N1CCC(Nc2ncc(Cl)c(-c3cnn(-c4ccc[nH]c4=O)c3)n2)CC1 [Compound 111, 3-(4-(2-((1-acetylpiperidin-4-yl)amino)-5-chloropyrimidin-4-yl)-1H-pyrazol-1-yl)pyridin-2(1H)-one] | > 6.30
CNC(=O)[C@H]1CC[C@@H](Nc2ncc(Cl)c(-c3cnn(-c4ccc(=O)[nH]c4)c3)n2)CC1 [Compound 163, cis-(1s,4s)-4-((5-chloro-4-(1-(6-oxo-1,6-dihydropyridin-3-yl)-1H-pyrazol-4-yl)pyrimidin-2-yl)amino)-N-methylcyclohexane-1-carboxamide] | 6.00 to 6.30
CC(=O)N1CCC(Nc2ncc(Cl)c(-c3ccn(C4CCCCC4)n3)n2)CC1 [Compound 109, 1-(4-((5-chloro-4-(1-cyclohexyl-1H-pyrazol-3-yl)pyrimidin-2-yl)amino)piperidin-1-yl)ethan-1-one] | 5.30 to 6.00
CC(=O)N[C@H]1CC[C@H](Nc2ncc(Cl)c(-c3cnn(-c4ccc(F)cc4)c3)n2)CC1 [Compound 121, trans-N-((1r,4r)-4-((5-chloro-4-(1-(4-fluorophenyl)-1H-pyrazol-4-yl)pyrimidin-2-yl)amino)cyclohexyl)acetamide] | > 6.30
CC(=O)N1CCC(Nc2ncc(Cl)c(-c3ccc(F)cc3)n2)CC1 [Compound 27, 1-(4-((5-chloro-4-(4-fluorophenyl)pyrimidin-2-yl)amino)piperidin-1-yl)ethan-1-one] | 6.00 to 6.30
CNC(=O)[C@H]1C[C@@H](Nc2ncc(Cl)c(-c3cnn(C4CC4)c3)n2)C1 [Compound 97, cis-3-((5-chloro-4-(1-cyclopropyl-1H-pyrazol-4-yl)pyrimidin-2-yl)amino)-N-methylcyclobutane-1-carboxamide] | > 6.30
CC(=O)N1CCC2(CCC(C(=O)N3CCC(Nc4ncc(Cl)c(-c5cccc(-c6ccccc6)c5)n4)CC3)CC2)CC1 [Compound 13, 1-(9-(4-((4-([1,1′-biphenyl]-3-yl)-5-chloropyrimidin-2-yl)amino)piperidine-1-carbonyl)-3-azaspiro[5.5]undecan-3-yl)ethan-1-one] | > 6.30
CC(=O)N1CCC(Nc2ncc(Cl)c(C3CCCN(C(=O)c4ccc(F)cc4)C3)n2)CC1 (stereo not shown) [Compound 125, 1-(4-((5-chloro-4-(1-(4-fluorobenzoyl)piperidin-3-yl)pyrimidin-2-yl)amino)piperidin-1-yl)ethan-1-one] | 5.30 to 6.00
CC(=O)N1CCC[C@H](Nc2ncc(Cl)c(-c3cccc(-c4ccc[nH]c4=O)c3)n2)C1 [Compound 152, (S)-3-(3-(2-((1-acetylpiperidin-3-yl)amino)-5-chloropyrimidin-4-yl)phenyl)pyridin-2(1H)-one] | > 6.30
CC(=O)N[C@H]1CCC[C@@H](Nc2ncc(Cl)c(-c3cccc(-c4ccccc4)c3)n2)C1 (relative stereo) [Compound 33, cis-N-(3-((4-([1,1′-biphenyl]-3-yl)-5-chloropyrimidin-2-yl)amino)cyclohexyl)acetamide] | > 6.30
CC(=O)N[C@H]1CC[C@H](Nc2ncc(Cl)c(-c3ccc(=O)n(C4CC4)c3)n2)CC1 [Compound 96, trans-N-((1r,4r)-4-((5-chloro-4-(1-cyclopropyl-6-oxo-1,6-dihydropyridin-3-yl)pyrimidin-2-yl)amino)cyclohexyl)acetamide] | 6.00 to 6.30
NC(=O)[C@@H]1CCC[C@H](Nc2ncc(F)c(C3CCCN(c4ccc(F)cc4)C3)n2)C1 (relative stereo) [Compound 91, cis-3-((5-fluoro-4-(1-(4-fluorophenyl)piperidin-3-yl)pyrimidin-2-yl)amino)cyclohexane-1-carboxamide] | > 6.30
CNC(=O)[C@H]1CC[C@H](Nc2ncc(Cl)c(-c3ccc(=O)n(-c4ccc(F)cc4)c3)n2)CC1 [Compound 95, trans-(1r,4r)-4-((5-chloro-4-(1-(4-fluorophenyl)-6-oxo-1,6-dihydropyridin-3-yl)pyrimidin-2-yl)amino)-N-methylcyclohexane-1-carboxamide] | 5.30 to 6.00
CC(=O)N[C@H]1CC[C@@H](Nc2ncc(Cl)c(-c3cccc(-c4ccc(F)cc4)n3)n2)CC1 [Compound 130, cis-N-((1s,4s)-4-((5-chloro-4-(6-(4-fluorophenyl)pyridin-2-yl)pyrimidin-2-yl)amino)cyclohexyl)acetamide] | > 6.30

Results, then the compound that gave them:

pIC50 | Structure (SMILES)
6.00 to 6.30 | CC(=O)N1CCC(Nc2ncc(F)c(N3CCCC(c4ccc(=O)[nH]c4)C3)n2)CC1 (stereo not shown) [Compound 199, 5-(1-(2-((1-acetylpiperidin-4-yl)amino)-5-fluoropyrimidin-4-yl)piperidin-3-yl)pyridin-2(1H)-one]
> 6.30 | CC(=O)N1CCC(Nc2ncc(F)c(-c3cccc(-c4ccc(=O)[nH]c4)c3)n2)CC1 [Compound 202, 5-(3-(2-((1-acetylpiperidin-4-yl)amino)-5-fluoropyrimidin-4-yl)phenyl)pyridin-2(1H)-one]
> 6.30 | CC(=O)N1CCC(Nc2ncc(F)c(-c3cccc(C4(O)COC4)c3)n2)CC1 [Compound 171, 1-(4-((5-fluoro-4-(3-(3-hydroxyoxetan-3-yl)phenyl)pyrimidin-2-yl)amino)piperidin-1-yl)ethan-1-one]
> 6.30 | CC(=O)N[C@H]1CC[C@H](Nc2ncc(F)c(-c3cccc(C4CCC(=O)NC4)c3)n2)CC1 (stereo partly drawn) [Compound 631, N-(trans-4-((5-fluoro-4-(3-(6-oxopiperidin-3-yl)phenyl)pyrimidin-2-yl)amino)cyclohexyl)acetamide]
> 6.30 | NC(=O)[C@H]1CC[C@H](Nc2ncc(F)c(-c3cccc(C4CC4)c3)n2)CC1 [Compound 618, trans-(1r,4r)-4-((4-(3-cyclopropylphenyl)-5-fluoropyrimidin-2-yl)amino)cyclohexane-1-carboxamide]
> 6.30 | CC(=O)N[C@H]1CC[C@H](Nc2ncc(F)c(-c3ccnc(N4CCCCC4=O)c3)n2)CC1 [Compound 257, trans-N-(-4-((5-fluoro-4-(2-(2-oxopiperidin-1-yl)pyridin-4-yl)pyrimidin-2-yl)amino)cyclohexyl)acetamide]
> 6.30 | CC(=O)N[C@H]1CC[C@H](Nc2ncc(F)c(-c3cccc(N4CCOC4=O)c3)n2)CC1 [Compound 233, trans-N-(4-((5-fluoro-4-(3-(2-oxooxazolidin-3-yl)phenyl)pyrimidin-2-yl)amino)cyclohexyl)acetamide]
> 6.30 | NC(=O)[C@H]1CC[C@H](Nc2ncc(F)c(-c3cccc(C4(O)CCC4)n3)n2)CC1 [Compound 620, trans-4-((5-fluoro-4-(6-(1-hydroxycyclobutyl)pyridin-2-yl)pyrimidin-2-yl)amino)cyclohexane-1-carboxamide]
6.00 to 6.30 | CNC(=O)[C@H]1CC[C@@H](Nc2ncc(Cl)c(-c3cnn(-c4cccc(=O)[nH]4)c3)n2)CC1 [Compound 167, cis-(1s,4s)-4-((5-chloro-4-(1-(6-oxo-1,6-dihydropyridin-2-yl)-1H-pyrazol-4-yl)pyrimidin-2-yl)amino)-N-methylcyclohexane-1-carboxamide]
> 6.30 | NC(=O)[C@H]1CC[C@H](Nc2ncc(F)c(-c3cccc(-c4ccccc4)c3)n2)CC1 [Compound 610, trans-4-((4-([1,1′-biphenyl]-3-yl)-5-fluoropyrimidin-2-yl)amino)cyclohexane-1-carboxamide]
> 6.30 | NC(=O)[C@H]1CC[C@H](Nc2ncc(F)c(-c3cccc(N4CCOCC4)c3)n2)CC1 [Compound 607, trans-4-((5-fluoro-4-(3-morpholinophenyl)pyrimidin-2-yl)amino) cyclohexane-1-carboxamide]
> 6.30 | CC(=O)N[C@H]1CC[C@H](Nc2ncc(F)c(-c3cccc(-n4cc(C(F)(F)F)ccc4=O)c3)n2)CC1 [Compound 234, trans-N-(4-((5-fluoro-4-(3-(2-oxo-5-(trifluoromethyl)pyridin-1 (2H)-yl)phenyl)pyrimidin-2-yl)amino)cyclohexyl)acetamide]
> 6.30 | CC(=O)N1CCC(Nc2ncc(F)c(-c3ccnc(N4CCOCC4=O)c3)n2)CC1 [Compound 628, 4-(4-(2-((1-acetylpiperidin-4-yl)amino)-5-fluoropyrimidin-4-yl)pyridin-2-yl)morpholin-3-one]
> 6.30 | CC(=O)N[C@H]1CC[C@H](Nc2ncc(F)c(-c3cccc(-c4ccc(=O)[nH]c4)c3)n2)CC1 [Compound 203, trans-N-(4-((5-fluoro-4-(3-(6-oxo-1,6-dihydropyridin-3-yl)phenyl)pyrimidin-2-yl)amino)cyclohexyl)acetamide]
> 6.30 | NC(=O)[C@H]1CC[C@H](Nc2ncc(F)c(-c3cccc(N4CCCOC4=O)c3)n2)CC1 [Compound 236, trans-4-((5-fluoro-4-(3-(2-oxo-1,3-oxazinan-3-yl)phenyl)pyrimidin-2-yl)amino)cyclohexane-1-carboxamide]
> 6.30 | CC(=O)N[C@H]1CC[C@H](Nc2ncc(F)c(-c3cccc(N4CCOCC4)c3)n2)CC1 [Compound 608, trans-N-(4-((5-fluoro-4-(3-morpholinophenyl)pyrimidin-2-yl)amino)cyclohexyl)acetamide]

Source: patent publication US20260355196A1, “INHIBITORS AND DEGRADERS OF PIP4K PROTEIN” (Larkspur Biosciences, Inc., priority 2023, published 2026)
